Assay results taken from ChEMBL document CHEMBL1201862, “PubChem BioAssay data set” (2004).
Activity calls are given as the source filed them.

Legend:
[1] = SK-MEL-5 parental line viability, dose response, MITF inhibitor project, cell-based, CellTiter-Glo, dry powder, set 6 (AID 624429); assay type: functional
[2] = A375 melanoma cell viability loss, dose response, counter-screen for MITF inhibitor project, CellTiter-Glo luminescence, dry powder, set 4 (AID 624364); assay type: functional, cell-based; conditions: A-375;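 note: A375 melanoma cells are MITF independent so this is a counter screen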
[3] = SK-MEL-5 parental cell viability reduction, dose response, orthogonal assay for MITF inhibitor project, CellTiter-Glo luminescence, dry powder, set 8 (AID 651586); assay type: functional, cell-based
[4] = MITF Orthogonal Assay: MALME3 CTG Assay Measured in Cell-Based System Using Plate Reader - 2084-04_Inhibitor_Dose_DryPowder_Activity_Set6.; assay type: functional; conditions: MALME-3
[5] = A375 melanoma cell cytotoxicity, dose response, counter-screen for MITF inhibitor project, CellTiter-Glo luminescence, dry powder, set 7 (AID 624490); assay type: functional, cell-based; conditions: A-375
[6] = MALME3 melanoma cell viability reduction, dose response, orthogonal assay for MITF inhibitor project, CellTiter-Glo luminescence, dry powder, set 5 (AID 651584); assay type: functional, cell-based; conditions: MALME-3
[7] = MITF Measured in Cell-Based System Using Plate Reader - 2084-01_Inhibitor_Dose_DryPowder_Activity_Set7.; assay type: functional
[8] = MITF Orthogonal Assay: SK-MEL-5 CTG Assay Measured in Cell-Based System Using Plate Reader - 2084-02_Inhibitor_Dose_DryPowder_Activity_Set5.; assay type: functional
[9] = TRPM1 promoter luciferase reporter signal decrease, dose response, MITF inhibitor project, cell-based, SK-MEL-5, dry powder, set 9 (AID 651588); assay type: functional
[10] = cytotoxicity in primary human melanocytes, dose response, cytotoxicity control, cell-based, plate reader, dry powder (AID 651920); assay type: functional
[11] = MITF Measured in Cell-Based System Using Plate Reader - 2084-01_Inhibitor_Dose_DryPowder_Activity_Set6.; assay type: functional
Paired box protein Pax-8 = Paired box protein Pax-8 (Homo sapiens, UniProt Q06710); test: inhibitors of PAX8-driven TPO luciferase reporter, dose response, RMG-I cells, cherry-pick (AID 687027); assay type: functional, cell-based;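 note: luciferase reporter driven by Pax8 target thyroperoxidase promoter measured by SteadyGlo luminescence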
Sequence of Paired box protein Pax-8 (Q06710 whole entry): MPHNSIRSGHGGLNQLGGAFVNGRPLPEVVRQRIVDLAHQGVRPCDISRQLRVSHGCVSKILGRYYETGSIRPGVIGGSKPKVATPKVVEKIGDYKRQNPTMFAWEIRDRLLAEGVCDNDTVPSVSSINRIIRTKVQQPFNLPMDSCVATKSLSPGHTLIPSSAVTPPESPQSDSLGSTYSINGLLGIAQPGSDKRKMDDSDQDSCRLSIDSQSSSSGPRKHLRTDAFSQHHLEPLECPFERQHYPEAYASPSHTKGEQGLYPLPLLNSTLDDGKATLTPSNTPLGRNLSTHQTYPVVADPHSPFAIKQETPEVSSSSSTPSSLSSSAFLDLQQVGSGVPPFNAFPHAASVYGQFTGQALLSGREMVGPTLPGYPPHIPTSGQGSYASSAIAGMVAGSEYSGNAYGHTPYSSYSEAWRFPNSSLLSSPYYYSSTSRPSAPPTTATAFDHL

[12] = IOSE-T80 ovarian epithelial cell cytotoxicity, dose response, cytotoxicity control for PAX8 inhibitor project, plate reader, dry powder samples (AID 743045); assay type: functional, cell-based
[13] = cytotoxicity in OVCAR8 ovarian cancer cells, dose response, PAX8 project, cell-based, plate reader, dry powder samples (AID 743197); assay type: functional; conditions: OVCAR-8
[14] = NIH:OVCAR-3 ovarian cancer cell cytotoxicity, dose response, PAX8 inhibitor project, plate reader, dry powder samples (AID 743044); assay type: functional, cell-based
[15] = IGROV1 ovarian cancer cell cytotoxicity, dose response, PAX8 inhibitor project, plate reader, dry powder samples (AID 743043); assay type: functional, cell-based; conditions: IGROV-1
[16] = HEK293T cell cytotoxicity, dose response, cytotoxicity control, CellTiter-Glo luminescence, dry powder, set 2 (AID 720595); assay type: functional, cell-based; conditions: HEK293
[17] = AlphaScreen signal interference by compounds, dose response, artefact control for ARNT/TACC3 disruptor project, biochemical, dual-tagged ARNT, dry powder (AID 720564)
[18] = HeLa cell cytotoxicity, dose response, cytotoxicity control, CellTiter-Glo luminescence, dry powder, set 2 (AID 720593); assay type: functional, cell-based
[19] = cytotoxicity in HepG2 cells, dose response, cytotoxicity control, cell-based, plate reader, dry powder (AID 651947); assay type: functional
[20] = inhibitors of fibronectin matrix deposition, dose response, AH1F cells, Alexa488-FN fluorescence, cherry-picks (AID 1035475); assay type: functional, cell-based
[21] = HEK293 cell cytotoxicity, dose response, cytotoxicity control, cherry-picks, set 5 (AID 1053117); assay type: functional, cell-based
[22] = A549 cell cytotoxicity, dose response, cytotoxicity control, cherry-picks, 26 µM top dose (AID 1053119); assay type: functional, cell-based
[23] = A549 cell cytotoxicity, dose response, cytotoxicity control, 24 h, CellTiter-Glo luminescence, cherry-picks (AID 1053115); assay type: functional, cell-based; conditions: A549, 24 h
[24] = RKO cell viability reduction, dose response, CellTiter-Glo luminescence (AID 1117322); assay type: functional
[25] = cytotoxicity toward HT-29 cells – cell-based, CellTiter-Glo luminescence, IC50, dose response (AID 1117330); assay type: functional
[26] = HeLa 2N DNA content increase, dose response, cell-based, IC50 (AID 1117349); assay type: functional
[27] = HeLa 4N DNA content increase, dose response, cell-based, IC50 (AID 1117351); assay type: functional
[28] = SNU-C1 cell viability reduction, dose response, CellTiter-Glo luminescence (AID 1117323); assay type: functional, cell-based
[29] = Concentration-dependent survival of SW480 colon cancer line, luminescence detection with CellTiter-Glo, half-maximal inhibitory concentration (AID 1117338); assay type: functional
[30] = cytotoxicity toward HCT116 cells – cell-based, CellTiter-Glo luminescence, IC50, dose response (AID 1117332); assay type: functional; conditions: HCT-116
[31] = cytotoxicity toward Colo320 cells – cell-based, CellTiter-Glo luminescence, IC50, dose response (AID 1117334); assay type: functional; conditions: COLO 320
[32] = HCT116 cell viability decrease, GSK3B pretreatment – CellTiter-Glo, IC50, dose response (AID 1117339); assay type: functional; conditions: HCT-116
[33] = CellTiter-Glo luminescent dose response of DLD-1 viability loss (AID 1117352); assay type: functional

O=C1C=C(NS(=O)(=O)c2ccccc2)C(=O)c2ccccc21
AC50 [1]: 10.5 µM (active) | AC50 [2]: > 70 µM (inactive) | AC50 [3]: 18.4 µM (active) | AC50 [4]: 21.3 µM (active) | AC50 [5]: > 70 µM (inactive) | AC50 [6]: 21.3 µM (active) | AC50 [7]: 4.57 µM (active) | AC50 [8]: 10.3 µM (active) | AC50 [9]: 13 µM (active) | AC50 [10]: 59.4 µM (active) | AC50 [11]: 3.04 µM (active)

O=C(NC1CCCCC1)N1C[C@@H]2N[C@H](C1)[C@@H]2c1ccc(-c2ccc(F)cc2)cc1
AC50 (Paired box protein Pax-8): 17.2 µM (active) | AC50 [12]: 45.7 µM (active) | AC50 [13]: > 70 µM (inactive) | AC50 [14]: 22 µM (active) | AC50 [15]: 63.7 µM (active)

O=C(Nc1nnc(-c2ccc(F)cc2)o1)c1ccc(S(=O)(=O)N2CCCCC2)cc1
AC50 [16]: 2.51 µM (active) | AC50 [17]: 72.4 µM (active) | AC50 [18]: 46.1 µM (active)

FC(F)(F)c1ccc(CSc2nnc(-c3ccccc3)o2)cc1
AC50 [19]: 0.223 µM (active)

N#Cc1ccc(-c2ccc3c(c2)[C@H]2[C@H](CCN2S(=O)(=O)c2cccc(F)c2)[C@H](CO)N3)cc1
AC50 [20]: 5.71 µM (active) | AC50 [21]: 32.6 µM (active) | AC50 [22]: 33.6 µM (active)

COc1ccccc1CN1CC[C@@H]2[C@H](CO)Nc3ccc(C#Cc4ccccc4)cc3[C@@H]21
AC50 [23]: > 60 µM (inactive)

O=C(O)CN(CCN(CC(=O)O)CC(=O)O)CCN(CC(=O)O)CC(=O)O [PENTETIC ACID]
IC50 [24]: 2.96 µM (active) | IC50 [25]: > 20 µM (inactive) | IC50 [26]: > 10 µM (inactive) | IC50 [27]: > 10 µM (inactive) | IC50 [28]: > 20 µM (inactive) | IC50 [29]: 3.14 µM (active) | IC50 [30]: > 6.67 µM (inactive) | IC50 [31]: > 20 µM (inactive) | IC50 [32]: 0.896 µM (active) | IC50 [33]: > 20 µM (inactive)
